Measurements: PubChem BioAssay (NCI)
Where “and” joins values, the source holds several entries; their conditions need not be identical. Identical values can stand only once.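 Where inhibition never reached the appropriate level, the endpoint shown equals the highest concentration tested. Otherwise, values were interpolated linearly from a five-concentration, 48-hour dose response in 96-well plates. The concentration for 50% growth inhibition is given as GI50. TGI denotes the concentration required for complete inhibition of growth.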

How the values were obtained:
Test in all cases: NCI anticancer screen, dose series, 48 h
[1] = tested on: SK-MEL-2 melanoma
[2] = tested on: OVCAR-3 ovarian
[3] = tested on: HL-60(TB) leukemia
[4] = tested on: UO-31 renal
[5] = tested on: DU-145 prostate
[6] = tested on: RXF 393 renal
[7] = tested on: OVCAR-5 ovarian
[8] = tested on: BT-549 breast
[9] = tested on: TK-10 renal
[10] = tested on: OVCAR-4 ovarian

| Compound | GI50 [1] [nM] | TGI [1] [nM] | GI50 [2] [nM] | TGI [2] [nM] | GI50 [3] | TGI [3] [nM] | GI50 [4] | TGI [4] | GI50 [5] [nM] | TGI [5] [nM] | GI50 [6] [nM] | TGI [6] [nM] | GI50 [7] [nM] | TGI [7] | GI50 [8] [nM] | TGI [8] [nM] | GI50 [9] [nM] | TGI [9] [nM] | GI50 [10] [nM] | TGI [10] [nM] |
| --- | --- | --- | --- | --- | --- | --- | --- | --- | --- | --- | --- | --- | --- | --- | --- | --- | --- | --- | --- | --- |
| C=CCC1(O)c2ccccc2C(=O)c2c(NCCN(CC(=O)OCC)CC(=O)OCC)cccc21 (stereo not drawn) | > 100000 | > 100000 | > 100000 | > 100000 | 71900 nM | > 100000 | > 100000 nM | > 100000 nM | > 100000 | > 100000 | > 100000 | > 100000 | > 100000 | > 100000 nM | > 100000 | > 100000 | > 100000 | > 100000 | > 100000 | > 100000 |
| COc1cccc2c1C(=O)c1c(O)c3c(c(O)c1C2=O)CC(O)(C(O)CO)CC3OC1CC(N2CCOCC2)C(O)C(C)O1 (stereo not drawn) |  | 11.7 | 32.3 |  | 35.2 nM and 25.1 nM | 195 | 3.98 nM and 21.3 nM | 31.4 nM and 65.2 nM |  | 3310 | < 1 |  | 33.1 | 92.6 nM and 93.5 nM |  | 206 | 23.3 |  | 14.5 |  |
| CC1OC(n2c3ccccc3c3c4c(c5c6ccccc6[nH]c5c32)C(=O)N(CCN[C@@H]2CCC[C@H]2N)C4=O)CC(O)C1O (stereo partly drawn) | 3680 | 11800 | 1710 | 6820 | 1260 nM | 8230 | 6450 nM | 15000 nM | 2220 | 8310 | 1680 | 7450 | 3660 | 11600 nM | 1740 | 8850 | 2980 | 11000 | 1720 | 7060 |
| Cc1cc(NCCN(C(C)C)C(C)C)nc(/N=C(\N)Nc2ccc(Cl)c(C(F)(F)F)c2)n1 | 208 | 388 | 1320 | 2770 | 380 nM | 952 | 201 nM | 604 nM | 1470 | 3040 | 249 | 750 | 2360 | 5240 nM | 1640 | 3590 | 297 | 1040 | 697 | 1970 |
| COc1cccc(C2=C(c3c(C)n(C)c4ccccc34)C(=O)NC2=O)c1 | > 25000 | > 25000 | > 23900 | > 25000 | > 17100 nM | > 25000 | 14000 nM | > 25000 nM | > 25000 | > 25000 | 12000 | > 25000 | > 25000 | > 25000 nM | > 21700 | > 25000 | 24200 | > 25000 | > 21500 | > 25000 |
| c1csc(-c2cn3nc(-c4c[nH]c5ccccc45)sc3n2)c1 | 1080 | 23800 | 924 | 9020 | 760 nM | 20900 | 1710 nM | > 100000 nM | 2860 | > 100000 | 2050 | 50000 | 4270 | 76400 nM | 2870 | 31700 | 5210 | 33500 | 4420 | > 100000 |
| CN[C@H](C#Cc1c(F)ccc2c1/C(=C/c1[nH]ccc1OC)C(=O)N2)CO | 199 | 749 | 869 | 3100 | 513 nM | 2010 | 335 nM | 2540 nM | 411 | 3000 | 85.5 | 704 | 917 | 3710 nM | 1150 | 4150 | 247 | 2250 | 631 | 4220 |
| O=[N+]([O-])c1ccc2c(c1)Cc1cc(N=Cc3ccc4c(c3)OCO4)ccc1-2 |  | > 100000 |  | > 100000 |  | > 100000 |  | > 100000 nM |  | > 100000 |  | > 100000 |  | > 100000 nM |  | > 100000 |  | > 100000 |  | > 100000 |
